Results on 31 compounds are retold here after patent US7291621B2, “Substituted biaryl amides C5a receptor modulators” (Neurogen Corporation, priority 2002, dated 2007).

The target of the test is T1, C5a receptor (Homo sapiens, UniProt P21730).
T1 construct: endogenous in cells; host or cells: U937 cells differentiated with 1 mM dibutyryl cAMP
T1 sequence (P21730 1-350): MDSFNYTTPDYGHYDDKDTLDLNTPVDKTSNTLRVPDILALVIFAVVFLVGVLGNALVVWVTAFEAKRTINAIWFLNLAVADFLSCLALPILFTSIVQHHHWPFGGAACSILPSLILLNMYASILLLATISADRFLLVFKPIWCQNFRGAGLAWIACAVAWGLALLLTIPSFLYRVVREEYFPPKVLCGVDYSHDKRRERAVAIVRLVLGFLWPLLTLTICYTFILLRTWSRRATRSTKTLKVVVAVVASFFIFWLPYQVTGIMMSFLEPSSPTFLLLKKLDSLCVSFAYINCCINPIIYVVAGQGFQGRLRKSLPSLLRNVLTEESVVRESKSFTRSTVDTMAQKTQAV
Briefly: standard assay of C5a receptor mediated calcium mobilization. The following applies: asterisk = tested in C5a receptor mediated calcium mobilization assay, read-out: Ca2+ Mob. In kind it is cell-based. Here is the method:
U937 cells are grown in differentiation media (1 mM dibutyrl cAMP in RPMI 1640 medium containing 10% fetal bovine serum) for 48 hrs at 37° C. then reseeded onto 96-well plates suitable for use in a FLIPR™ Plate Reader (Molecular Devices Corp., Sunnyvale Calif.). Cells are grown an additional 24 hours (to 70-90% confluence) before the assay. The cells are then washed once with Krebs Ringer solution. FLUO-3 calcium sensitive dye (Molecular Probes, Inc. Eugene, Oreg.) is added to 10 μg/mL and incubated with the cells at room temperature for 1 to 2 hours. The 96 well plates are then washed to remove excess dye. Fluorescence responses, measured by excitation at 480 nm and emission at 530 nm, are monitored upon the addition of human C5a to the cells to a final concentration of 0.01-30.0 nM, using the FLIPR™ device (Molecular Devices).
The calcium mobilization assay described above may be readily adapted for identifying test compounds that have agonist or antagonist activity at the human C5a receptor.
For example, in order to identify antagonist compounds, differentiated U937 cells are washed and incubated with Fluo-3 dye as described above. One hour prior to measuring the fluorescence signal, a subset of the cells is incubated with 1 μM of at least one compound to be tested. The fluorescence response upon the subsequent addition of 0.3 nM (final concentration) human recombinant C5a is monitored using the FLIPR™ plate reader. Antagonist compounds elicit at least a 2-fold decrease in the fluorescence response relative to that measured in the presence of human C5a alone. Preferred antagonist compounds elicit at least a 5-fold, preferably at least a 10-fold, and more preferably at least a 20-fold decrease in the fluorescence response relative to that measured in the presence of human C5a alone.
(A change in cytosolic calcium serves as a functional read-out for many receptors and channels.)

Molecules are shown by their SMILES. Where two headings read alike, the source gives them in different places.

As for `Cc1ccc(CN(C(=O)c2c(-c3ccccc3)ccc3ccccc23)C2Cc3ccccc3C2)cc1` [compound 240, 2-Phenyl-naphthalene 1-carboxylic acid (4-methyl-benzyl)-indan-2-yl-amide], for the setting “Table III”, the Ki was less than 1 µM.

On to `Cc1ccc(-c2ccccc2C(=O)N(Cc2ccccc2C)C2Cc3ccccc3C2)cc1` [compound 100, N-(indan-2-yl)-4′-methyl-N-(2-methylbenzyl)-1,1′-biphenyl-2-carboxamide], for which, under “Table I”, the Ki was less than 1 µM.

For the compound `Cc1ccc(-c2ccccc2C(=O)N(Cc2ccccc2F)C2Cc3ccccc3C2)cc1` [compound 94, N-(indan-2-yl)-N-(2-fluorobenzyl)-4′-methyl-1,1′-biphenyl-2-carboxamide], the Ki (Table I) was less than 1 µM.

For the compound `COc1ccc2c(c1)CC(N(Cc1ccccc1)C(=O)c1ccccc1-c1ccccc1)C2` (stereo not shown) [compound 71, N-benzyl-N-(5-methoxy-indan-2-yl)-1,1′-biphenyl-2-carboxamide], the Ki (Table I) was less than 1 µM.

Take `Cc1cccc(-c2ccccc2)c1C(=O)N(Cc1ccccc1F)C1Cc2ccccc2C1` [compound 123, N-(indan-2-yl)-N-(2-fluorobenzyl)-3-methyl-1,1′-biphenyl-2-carboxamide]: the Ki (Table I) is less than 1 µM.

On to `Cc1ccc(CN(C(=O)c2ccccc2-c2ccc(C)cc2)C2Cc3ccccc3C2)cc1` [compound 88, N-(indan-2-yl)-4′-methyl-N-(4-methylbenzyl)-1,1′-biphenyl-2-carboxamide], for which the Ki (Table I) was less than 1 µM.

As to `O=C(c1ccccc1-c1ccccc1F)N(Cc1ccccc1)Cc1ccccc1` [compound 87, N,N-dibenzyl-2′-fluoro-1,1′-biphenyl-2-carboxamide], where the note is “Table I”, the Ki is less than 1 µM.

For `O=C(c1ccccc1-c1cccc(F)c1)N(Cc1ccccc1)Cc1ccccc1` [compound 39, N,N-dibenzyl-3′-fluoro-1,1′-biphenyl-2-carboxamide], the Ki (Table I) is less than 1 µM.

In the case of `COc1ccc2ccccc2c1C(=O)N(Cc1ccc(C)cc1)C1Cc2ccccc2C1` [compound 223, 2-Methoxy-naphtlalene-1-carboxylic acid (4-methyl-benzyl)-indan-2-yl-amide], the Ki (Table III) was less than 1 µM.

`O=C(c1ccccc1-c1ccc(Cl)cc1)N(Cc1ccccc1)Cc1ccccc1` [compound 50, N,N-dibenzyl-4′-chloro-1,1′-biphenyl-2-carboxamide]: the Ki (Table I) was less than 1 µM.

Take `Cc1cc(CN(Cc2ccccc2)C(=O)c2ccccc2-c2ccccc2)cc(C)c1O` [compound 150, N-benzyl-N-(4-hydroxy-3,5-dimethylbenzyl)-1,1′-biphenyl-2-carboxamide]: the Ki (Table I) was less than 1 µM.

Regarding `Cc1cccc(-c2ccccc2)c1C(=O)N(Cc1ccc2c(c1)OCO2)C1Cc2ccccc2C1` [compound 129, N-(1,3-benzodioxol-5-ylmethyl)-N-(indan-2-yl)-3-methyl-1,1′-biphenyl-2-carboxamide], under “Table I”, the Ki was less than 1 µM.

Regarding `COc1ccc(-c2ccccc2)c(C(=O)N(Cc2ccc(C)cc2)C2Cc3ccccc3C2)c1` [compound 107, N-(indan-2-yl)-4-methoxy-N-(4-methylbenzyl)-1,1′-biphenyl-2-carboxamide], where the note is “Table I”, the Ki is less than 1 µM.

`Cc1cccc(-c2ccccc2)c1C(=O)N(Cc1ccccc1)C1Cc2ccccc2C1` [compound 113, N-benzyl-N-(indan-2-yl)-3-methyl-1,1′-biphenyl-2-carboxamide]: the Ki (Table I) was less than 1 µM.

Turning to `O=C(c1ccccc1-c1ccc(F)cc1)N(Cc1ccccc1)Cc1ccccc1` [compound 34, N,N-dibenzyl4′-fluoro-1,1′-biphenyl-2-carboxamide], the Ki (Table I) was less than 1 µM.

On to `COc1cccc(-c2ccccc2C(=O)N(Cc2cccc(C)c2)C2Cc3ccccc3C2)c1` [compound 98, N-(indan-2-yl)-3′-methoxy-N-(3-methylbenzyl)-1,1′-biphenyl-2-carboxamide], for which the Ki (Table I) was less than 1 µM.

As for `COc1cccc(-c2ccccc2C(=O)N(Cc2ccc(C)cc2)C2Cc3ccccc3C2)c1` [compound 89, N-(indan-2-yl)-3′-methoxy-N-(4-methylbenzyl)-1,1′-biphenyl-2-carboxamide], for the setting “Table I”, the Ki is less than 1 µM.

With `O=C(c1cccc2c1-c1ccccc1C2)N(Cc1ccc2c(c1)OCO2)C1Cc2ccccc2C1` [compound 65, N-(1,3-benzodioxol-5-ylmethyl)-N-(indan-2-yl)-9H-fluorene-4-carboxamide], under “Table I”, the Ki was less than 1 µM.

Turning to `O=C(c1cc(Cl)ccc1-c1ccccc1)N(Cc1ccccc1)Cc1cccc2ccccc12` [compound 146, N-benzyl-4-chloro-N-(1-naphthylmethyl)-1,1′-biphenyl-2-carboxamide], the Ki (Table I) was less than 1 µM.

Take `Cc1ccccc1CN(C(=O)c1ccccc1-c1ccccc1)C1Cc2ccccc2C1` [compound 73, N-(indan-2-yl)-N-(2-methylbenzyl)-1,1′-biphenyl-2-carboxamide]: the Ki (Table I) was less than 1 µM.

`COc1cccc(CN(C(=O)c2cc(OC)ccc2-c2ccsc2)C2Cc3ccccc3C2)c1` [compound 104, N-(indan-2-yl)-5-methoxy-N-(3-methoxybenzyl)-2-thien-3-ylbenzamide]: for the setting “Table I”, the Ki was less than 1 µM.

As for `O=C(c1cc(Cl)ccc1-c1ccccc1)N(Cc1ccc(F)cc1)C1Cc2ccccc2C1` [compound 136, 4-chloro-N-(indan-2-yl)-N-(4-fluorobenzyl)-1,1′-biphenyl-2-carboxamide], under “Table I”, the Ki was less than 1 µM.

Take `O=C(c1cc(Cl)ccc1-c1ccccc1)N(CCc1ccccc1)C1Cc2ccccc2C1` [compound 141, 4-chloro-N-(indan-2-yl)-N-(2-phenylethyl)-1,1′-biphenyl-2-carboxamide]: the Ki (Table I) is less than 1 µM.

As to `Cc1ccc(-c2ccccc2C(=O)N(Cc2ccccc2)Cc2ccccc2)cc1` [compound 55, N,N-dibenzyl-4′-methyl-1,1′-biphenyl-2-carboxamide], the Ki (Table I) was less than 1 µM.

For `Cc1ccc(-c2ccccc2C(=O)N(Cc2cccc(F)c2)C2Cc3ccccc3C2)cc1` [compound 95, N-(indan-2-yl)-N-(3-fluorobenzyl)-4′-methyl-1,1′-biphenyl-2-carboxamide], the Ki (Table I) was less than 1 µM.

With `Cc1cccc(CN(C(=O)c2ccccc2-c2ccccc2)C2Cc3ccccc3C2)c1` [compound 74, N-(indan-2-yl)-N-(3-methylbenzyl)-1,1′-biphenyl-2-carboxamide], the Ki (Table I) is less than 1 µM.

With `O=C(c1ccccc1-c1ccccc1)N(Cc1ccccc1F)C1Cc2ccccc2C1` [compound 78, N-(indan-2-yl)-N-(2-fluorobenzyl)-1,1′-biphenyl-2-carboxamide], where the note is “Table I”, the Ki was less than 1 µM.

In the case of `O=C(c1ccccc1-c1ccc(OC(F)(F)F)cc1)N(Cc1ccccc1)Cc1ccccc1` [compound 36, N,N-dibenzyl-4′-(trifluoromethoxy)-1,1′-biphenyl-2-carboxamide], where the note is “Table I”, the Ki is less than 1 µM.

Regarding `COc1ccccc1CN(C(=O)c1ccccc1-c1ccccc1F)C1Cc2ccccc2C1` [compound 82, N-(indan-2-yl)-2′-fluoro-N-(2-methoxybenzyl)-1,1′-biphenyl-2-carboxamide], where the note is “Table I”, the Ki is less than 1 µM.

For the compound `COc1cccc(CN(C(=O)c2c(C)cccc2-c2ccccc2)C2Cc3ccccc3C2)c1` [compound 127, N-(indan-2-yl)-N-(3-methoxybenzyl)-3-methyl-1,1′-biphenyl-2-carboxamide], the Ki (Table I) is less than 1 µM.

Consider `COc1ccc(-c2ccccc2)c(C(=O)N(Cc2ccccc2)C2Cc3ccccc3C2)c1` [compound 66, N-benzyl-N-(indan-2-yl)-4-methoxy-1,1′-biphenyl-2-carboxamide], for which the Ki (Table I) is less than 1 µM.
